Source: article PMC10582583, “The novel cyclophilin inhibitor C105SR reduces hepatic ischaemia–reperfusion injury via mitoprotection” (JHEP Reports, 2023)
Read-outs that look alike come from different tables or passages of the source.

Tests used:
[1] = Plasmatic and hepatic concentration of C105SR in mice; format: in vivo; conditions: sc, mouse, 50 mg/kg by subcutaneous osmotic pump
Experimental: Briefly, 70% of the liver was subjected to 1 h of ischaemia followed by 6 h of reperfusion, as recently described.[16] C105SR was administered using osmotic pumps at a dose of 50 mg/kg. […]
simulation was performed using @TOME‐2 server with no constraint. The images were generated using PyMOL and MarvinSketch.
Determination of plasmatic and hepatic concentration of C105SR. Mice (10-12 weeks-old, n=6) were anesthetized with isoflurane and subcutaneously implanted with Alzet® osmotic pump containing C105SR (50 mg/kg) or vehicle. 24h after, the blood and the liver were collected. C105SR in plasma and liver homogenates was extracted with cold acetonitrile containing 0.1% of acetic acid and centrifugation at 13,000 x g for 10 min at 4 °C. C105SR dosage was carried out by tandem mass spectrometric detection with a TSQ QUANTIS® mass spectrometer (ThermoFisher Scientific, Villebon-sur-Yvette, France), with an electrospray ionization source (ESI) which was set in positive electro-spray ionization (ESI+). The acquired data were processed using Trace Finder® software version 4.1 (Thermo Fisher Scientific, Villebon-sur-Yvette, France). Optimization of the MS conditions has been performed by single direct infusion of reference standards of the analyte. Two […]

[2] = system: hepatic ischaemia-reperfusion injury in C57BL/6J mice; assay: Mouse model of hepatic ischaemia-reperfusion injury; format: in vivo; conditions: 50 mg/kg osmotic pump, 1 h ischaemia, 6 h reperfusion
Experimental: Mice (10–12 weeks-old) were anesthetised with isoflurane and subcutaneously implanted with Alzet® osmotic pump containing C105SR (50 mg/kg) or vehicle 24 h before the surgical procedure. The mice were anesthetised with isoflurane and subjected to partial hepatic ischaemia by clamping the hepatic artery and portal vein for 60 min, followed by 6 h of reperfusion induced by removal of the clamp. The sham-operated group underwent laparotomy without vascular occlusion.
Briefly, 70% of the liver was subjected to 1 h of ischaemia followed by 6 h of reperfusion, as recently described.[16] C105SR was administered using osmotic pumps at a dose of 50 mg/kg.
Mouse serum analysis. Blood was collected at 6 h of reperfusion. Alanine aminotransferase (ALT) and aspartate aminotransferase (AST) activities were measured on an automated analyzer in the Biochemistry Department of Henri Mondor Hospital.
Histological Analysis. Hematoxylin and eosin staining was performed on 4-μm thick formalin-fixed paraffin-embedded tissue sections. Slides were scanned at x20 magnification using a virtual slide scanning system (Axio scan7/ZEN slidescan). Necrosis areas were quantified with […]
TUNEL Assay. Terminal deoxynucleotidyl-transferase (TdT) dUTP Nick-End Labeling (TUNEL) was performed on formalin-fixed paraffin-embedded tissue sections using a commercial kit (Abcam, Cambridge, United Kingdom) following the manufacturer’s instructions. The number of TUNEL-positive cells were quantified using QuPath on slides scanned at x20 magnification using a virtual slide scanning system (Axio scan7/ZEN slidescan).
Caspase 3/7 activity assay. Caspase 3/7 activity was assessed using the commercially Caspase-Glo® 3/7 assay (Promega, Madison, Wisconsin) following the manufacturer’s instructions.
Briefly, Caspase-Glo® 3/7 Reagent was incubated with the cells and the caspase3/7 activity was determined by measuring luminescence with a luminometer (Berthold). Caspase3/7 activity was expressed as a percentage of the untreated control.
In silico modeling and docking. […]

With `COc1ccc(Br)cc1[C@H](NC(=O)NCc1ccc2c(c1)CCCN2)C(=O)N1CCC[C@@H]1c1cccc2ccsc12` [Compound C105SR, 1-((S)-2-((R)-2-(benzo[b]thiophen-7-yl)pyrrolidin-1-yl)-1-(5-bromo-2-methoxyphenyl)-2-oxoethyl)-3-((1,2,3,4-tetrahydroquinolin-6-yl)methyl)urea] the concentration at 24 h ([1]; liver, read-out: hepatic concentration) was ~30 nM, the concentration at 24 h ([1]; plasma, read-out: plasmatic concentration) was ~30 nM and the “hepatocyte necrosis (histology)” value [2] was “significantly protected”. For the same molecule, the “serum ALT and AST levels” value [2] was “significantly protected” and the “number of TUNEL-positive apoptotic cells” value ([2]; vs vehicle) was “significantly reduced”.
